Values of other authors, collected in US20100172982A1, “SUSTAINED RELEASE FORMULATIONS OF DIVALPROEX SODIUM” (SUN PHARMACEUTICAL INDUSTRIES LIMITED, priority 2007, published 2010).

Conditions: children

In the case of `CCCC(CCC)C(=O)O` [valproic acid, 2-propylpenatnoic acid], the elimination half-life is listed as “four and fourteen”.
